From patent US20250195530A1, “POLQ INHIBITORS” (ASTRAZENECA AB, priority 2022, published 2025)
Like-named read-outs stand apart in the source and are kept apart here.

Key:
DLD-1 BRCA2−/− cells = assay: Homologous recombination synthetic lethal inhibition of proliferation, DLD-1 BRCA2-/- (Cell Titre Glo 3D); type: cell-based; settings: for IC50: Homo sapiens
In short: (§1)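 Luminescent Cell Titre Glo 3D readout, taken on day 12 for homologous-recombination-deficient DLD-1 BRCA2−/− and day 7 for the wild-type control, after compound refresh on day 6. Compounds spanned 10 μM to 0.51 nM in three-fold steps; IC50 defined as 50% reduction of average maximum signal.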

DLD-1 cells = assay: Inhibition of proliferation, DLD-1 BRCA2 wt control (Cell Titre Glo 3D); type: cell-based; settings: for IC50: Homo sapiens
In short: as §1

[1] = DLD-1, 288 h, DLD-1 BRCA2−/− cells, 12 days, read-out: POLQ PD Prolif Lumin BRCA2 −/− mean pIC50 (converted)
[2] = DLD-1, 168 h, DLD-1 BRCA2 wt cells, 7 days, read-out: POLQ PD Prolif Lumin DLD1 mean pIC50 (converted)
[3] = DLD-1, first proliferation column (c5), DLD-1 BRCA2-/-, read-out: POLQ PD Prolif Lumin (converted)
[4] = DLD-1, second proliferation column (c6), DLD-1 BRCA2 wt control, read-out: POLQ PD Prolif Lumin (converted)
[5] = DLD-1, DLD-1 BRCA2-/- proliferation, column head only partly shown, read-out: POLQ PD Prolif Lumin (converted)
[6] = DLD-1, DLD-1 BRCA2 wt control proliferation, column head only partly shown, read-out: POLQ PD Prolif Lumin (converted)
[7] = DLD-1, proliferation, luminescence, taken as DLD-1 BRCA2-/-, read-out: POLQ PD Prolif Lumin (converted)
[8] = DLD-1, proliferation, luminescence, second Prolif column (c6), taken as DLD-1 BRCA2 wt control, read-out: POLQ PD Prolif Lumin (converted)
[9] = DLD-1, DLD-1 BRCA2 −/−, mean, read-out: POLQ PD Prolif Lumin BRCA2 −/− mean pIC50 (converted)
[10] = DLD-1, DLD1 BRCA2 wt, mean, read-out: POLQ PD Prolif Lumin DLD1 mean pIC50 (converted)

**Q.** How did the IC50 (DLD-1 BRCA2−/− cells; [1]) turn out when `CC1(Oc2ncnc3c2nc(-c2ccc(OCCN4CCNCC4)cc2Cl)n3Cc2nccs2)CC1` [Example K4, 2-((8-(2-chloro-4-(2-(piperazin-1-yl)ethoxy)phenyl)-6-(1-methylcyclopropoxy)-9H-purin-9-yl)methyl)thiazole] was run?
**A.** 3980 nM

**Q.** And the IC50 (DLD-1 cells; [2])?
**A.** > 10000 nM

**Q.** Which results are given for `CN1CCN(CCOc2ccc(-c3nc4c(OC5(C)CC5)ncnc4n3Cc3cccnc3)c(Cl)c2)CC1` [Example H7, 8-(2-chloro-4-(2-(4-methylpiperazin-1-yl)ethoxy)phenyl)-6-(1-methylcyclopropoxy)-9-(pyridin-3-ylmethyl)-9H-purine]?
**A.** IC50 (DLD-1 BRCA2−/− cells; [1]): 1000 nM; IC50 (DLD-1 cells; [2]): 3160 nM

**Q.** What does the source list for `CC1(Oc2ncnc3c2nc(-c2ccc(OCCC(=O)O)cc2Cl)n3Cc2ccccc2)CC1` [Example H11, 3-(4-(9-benzyl-6-(1-methylcyclopropoxy)-9H-purin-8-yl)-3-chlorophenoxy)propanoic acid]?
**A.** IC50 (DLD-1 BRCA2−/− cells; [1]): 1000 nM; IC50 (DLD-1 cells; [2]): > 10000 nM

**Q.** How did the IC50 (DLD-1 BRCA2−/− cells; [3]) turn out when `Cc1ccnc(Cn2c(-c3ccc(OCCS(C)(=O)=O)cc3Cl)nc3c(OC4(C)CC4)ncnc32)c1` [Example T129, 8-(2-chloro-4-(2-(methylsulfonyl)ethoxy)phenyl)-6-(1-methylcyclopropoxy)-9-((4-methylpyridin-2-yl)methyl)-9H-purine] was run?
**A.** 158 nM

**Q.** And the IC50 (DLD-1 cells; [4])?
**A.** > 10000 nM

**Q.** With `C[C@@H]1CNCCN1CCOc1ccc(-c2nc3c(OC4(C)CC4)ncnc3n2Cc2ccccc2)c(Cl)c1` [Example R11, (R)-9-benzyl-8-(2-chloro-4-(2-(2-methylpiperazin-1-yl)ethoxy)phenyl)-6-(1-methylcyclopropoxy)-9H-purine] as the compound, how does the IC50 (DLD-1 BRCA2−/− cells; [1]) read?
**A.** 100 nM

**Q.** And the IC50 (DLD-1 cells; [2])?
**A.** 2510 nM

**Q.** With `Cc1ccnc(Cn2c(-c3ccc(N4CC(C(N)=O)C4)cc3Cl)nc3c(OC4(C)CC4)ncnc32)c1` [Example T204, 1-(3-chloro-4-(6-(1-methylcyclopropoxy)-9-((4-methylpyridin-2-yl)methyl)-9H-purin-8-yl)phenyl)azetidine-3-carboxamide] as the compound, how does the IC50 (DLD-1 BRCA2−/− cells; [5]) read?
**A.** 631 nM

**Q.** And the IC50 (DLD-1 cells; [6])?
**A.** > 10000 nM

**Q.** For `COc1ccc(Cl)cc1Cn1c(-c2cccc(O[C@H]3C[C@H](C(=O)O)C3)c2Cl)nc2c(OC3(C)CC3)ncnc21` [Example U51, (1r,3r)-3-(2-chloro-3-(9-(5-chloro-2-methoxybenzyl)-6-(1-methylcyclopropoxy)-9H-purin-8-yl)phenoxy)cyclobutane-1-carboxylic acid], which “POLQ PD Prolif Lumin BRCA2 −/− mean pIC50” value (DLD-1 BRCA2−/− cells; DLD-1 BRCA2 −/−, mean) is on record?
**A.** 7.2

**Q.** And the “POLQ PD Prolif Lumin DLD1 mean pIC50” value (DLD-1 cells; DLD1 BRCA2 wt, mean)?
**A.** <5.0

**Q.** Which results are given for `CCC1(Oc2ncnc3c2nc(-c2ccc(OCCN4CCNCC4)cc2Cl)n3Cc2ccccc2)CC1` [Example Q2, 9-benzyl-8-(2-chloro-4-(2-(piperazin-1-yl)ethoxy)phenyl)-6-(1-ethylcyclopropoxy)-9H-purine]?
**A.** IC50 (DLD-1 BRCA2−/− cells; [1]): 398 nM; IC50 (DLD-1 cells; [2]): 2000 nM

**Q.** What does the source list for `CC1(Oc2ncnc3c2nc(-c2ccc(OCCN4CCNCC4)cc2Cl)n3Cc2ccccn2)CCC1` [Example J7, 8-(2-chloro-4-(2-(piperazin-1-yl)ethoxy)phenyl)-6-(1-methylcyclobutoxy)-9-(pyridin-2-ylmethyl)-9H-purine]?
**A.** IC50 (DLD-1 BRCA2−/− cells; [1]): 316 nM; IC50 (DLD-1 cells; [2]): 7940 nM

**Q.** For `CNC(=O)c1ccc(-c2nc3c(OC4(C)CC4)ncnc3n2Cc2cc(C)ccn2)c(Cl)c1` [Example T52, 3-chloro-N-methyl-4-(6-(1-methylcyclopropoxy)-9-((4-methylpyridin-2-yl)methyl)-9H-purin-8-yl)benzamide], which IC50 (DLD-1 BRCA2−/− cells; DLD-1, DLD-1 BRCA2 −/− cells, mean, read-out: POLQ PD Prolif Lumin BRCA2 −/− mean pIC50 (converted)) is on record?
**A.** 501 nM

**Q.** And the IC50 (DLD-1 cells; DLD-1, DLD1 BRCA2 wt cells, mean, read-out: POLQ PD Prolif Lumin DLD1 mean PIC50 (converted))?
**A.** > 10000 nM

**Q.** Which results are given for `CC1(Oc2ncnc3c2nc(-c2ccc(OCC(=O)N4CCNCC4)cc2Cl)n3Cc2ccccc2)CC1` [Example C8, 2-(4-(9-benzyl-6-(1-methylcyclopropoxy)-9H-purin-8-yl)-3-chloro-phenoxy)-1-(piperazin-1-yl)ethan-1-one]?
**A.** IC50 (DLD-1 BRCA2−/− cells; [1]): 316 nM; IC50 (DLD-1 cells; [2]): 6310 nM

**Q.** With `Cc1ccnc(Cn2c(-c3ccc(OC4CC5(CNC5)C4)cc3Cl)nc3c(OC4(C)CC4)ncnc32)c1` [Example T457, 8-(4-((2-azaspiro[3.3]heptan-6-yl)oxy)-2-chlorophenyl)-6-(1-methylcyclopropoxy)-9-((4-methylpyridin-2-yl)methyl)-9H-purine] as the compound, how does the IC50 (DLD-1 BRCA2−/− cells; [7]) read?
**A.** 316 nM

**Q.** And the IC50 (DLD-1 cells; [8])?
**A.** > 10000 nM

**Q.** With `Cc1ccnc(Cn2c(-c3cccc(OCCCN4CC(O)C4)c3Cl)nc3c(OC4(C)CC4)ncnc32)c1` [Example T514, 1-(3-(2-chloro-3-(6-(1-methylcyclopropoxy)-9-((4-methylpyridin-2-yl)methyl)-9H-purin-8-yl)phenoxy)propyl)azetidin-3-ol] as the compound, how does the IC50 (DLD-1 BRCA2−/− cells; [3]) read?
**A.** 398 nM

**Q.** What about the IC50 (DLD-1 cells; [4]) of the same compound?
**A.** > 10000 nM

**Q.** Which results are given for `CN1CCN(CCOc2ccc(-c3nc4c(OC5(C)CC5)ncnc4n3Cc3ccccc3Cl)c(Cl)c2)CC1` [Example E1, 8-(2-chloro-4-(2-(4-methylpiperazin-1-yl)ethoxy)phenyl)-9-(2-chlorobenzyl)-6-(1-methylcyclopropoxy)-9H-purine]?
**A.** IC50 (DLD-1 BRCA2−/− cells; [1]): 31.6 nM; IC50 (DLD-1 cells; [2]): 2510 nM

**Q.** Which results are given for `COc1ccc(Cl)cc1Cn1c(-c2cccc(OCCCOCC(=O)O)c2Cl)nc2c(OC3(C)CC3)ncnc21` [Example U30, 2-(3-(2-chloro-3-(9-(5-chloro-2-methoxybenzyl)-6-(1-methylcyclopropoxy)-9H-purin-8-yl)phenoxy)propoxy)acetic acid]?
**A.** IC50 (DLD-1 BRCA2−/− cells; [9]): 20 nM; IC50 (DLD-1 cells; [10]): > 10000 nM

**Q.** With `CN1CCC(Oc2cccc(-c3nc4c(OC5(C)CC5)ncnc4n3Cc3ccccc3)c2Cl)CC1` [Example D9, 9-benzyl-8-(2-chloro-3-((1-methylpiperidin-4-yl)oxy)phenyl)-6-(1-methylcyclopropoxy)-9H-purine] as the compound, how does the IC50 (DLD-1 BRCA2−/− cells; [1]) read?
**A.** 158 nM

**Q.** What about the IC50 (DLD-1 cells; [2]) of the same compound?
**A.** 2000 nM

**Q.** What does the source list for `CC(CCOc1ccc(-c2nc3c(OC4(C)CC4)ncnc3n2Cc2cc(Cl)ccc2F)c(Cl)c1)C(=O)O` (racemic) [Example T268, 4-(3-chloro-4-(9-(5-chloro-2-fluorobenzyl)-6-(1-methylcyclopropoxy)-9H-purin-8-yl)phenoxy)-2-methylbutanoic acid]?
**A.** IC50 (DLD-1 BRCA2−/− cells; [5]): 63.1 nM; IC50 (DLD-1 cells; [6]): > 10000 nM

**Q.** How did the IC50 (DLD-1 BRCA2−/− cells; DLD-1, first proliferation column (c5), taken as DLD-1 BRCA2-/-, read-out: POLQ PD Prolif Lumin (converted)) turn out when `CC1(Oc2ncnc3c2nc(-c2ccc(OCCCOCC(=O)O)cc2Cl)n3Cc2cccc(Cl)c2)CC1` [Example T302, 2-(3-(3-chloro-4-(9-(3-chlorobenzyl)-6-(1-methylcyclopropoxy)-9H-purin-8-yl)phenoxy)propoxy)acetic acid] was run?
**A.** 316 nM

**Q.** What about the IC50 (DLD-1 cells; DLD-1, second proliferation column (c6), taken as DLD-1 BRCA2 wt, read-out: POLQ PD Prolif Lumin (converted)) of the same compound?
**A.** > 10000 nM

**Q.** `Cc1ccc(F)c(Cn2c(-c3ccc(OCCC(C)C(=O)O)cc3Cl)nc3c(OC4(C)CC4)ncnc32)c1` (racemic) [Example T417, 4-(3-chloro-4-(9-(2-fluoro-5-methylbenzyl)-6-(1-methylcyclopropoxy)-9H-purin-8-yl)phenoxy)-2-methylbutanoic acid] was tested. Which IC50 (DLD-1 BRCA2−/− cells; [7]) did it give?
**A.** 50.1 nM

**Q.** What about the IC50 (DLD-1 cells; [8]) of the same compound?
**A.** > 10000 nM

**Q.** `COc1ccc(F)cc1Cn1c(-c2ccc(OCC[C@@H](C)C(=O)O)cc2Cl)nc2c(OC3(C)CC3)ncnc21` [Example U67, (R)-4-(3-chloro-4-(9-(5-fluoro-2-methoxybenzyl)-6-(1-methylcyclopropoxy)-9H-purin-8-yl)phenoxy)-2-methylbutanoic acid] was tested. Which IC50 (DLD-1 BRCA2−/− cells; [9]) did it give?
**A.** 50.1 nM

**Q.** What about the IC50 (DLD-1 cells; [10]) of the same compound?
**A.** > 10000 nM

**Q.** For `Cc1ccnc(Cn2c(-c3ccc(OCCN4CCNCC4)cc3Cl)nc3c(OC4(C)CC4)ncnc32)c1` [Example L2, 8-(2-chloro-4-(2-(piperazin-1-yl)ethoxy)phenyl)-6-(1-methylcyclopropoxy)-9-((4-methylpyridin-2-yl)methyl)-9H-purine], which IC50 (DLD-1 BRCA2−/− cells; [1]) is on record?
**A.** 398 nM

**Q.** What about the IC50 (DLD-1 cells; [2]) of the same compound?
**A.** > 10000 nM

**Q.** What does the source list for `COc1ccc(C)cc1Cn1c(-c2cccc(O[C@H]3CC[C@H](C(=O)O)CC3)c2Cl)nc2c(OC3(C)CC3)ncnc21` [Example U91, (1r,4r)-4-(2-chloro-3-(9-(2-methoxy-5-methylbenzyl)-6-(1-methylcyclopropoxy)-9H-purin-8-yl)phenoxy)cyclohexane-1-carboxylic acid]?
**A.** POLQ PD Prolif Lumin BRCA2 −/− mean pIC50 (DLD-1 BRCA2−/− cells; DLD-1 BRCA2 −/−, mean): 7.8; POLQ PD Prolif Lumin DLD1 mean pIC50 (DLD-1 cells; DLD1 BRCA2 wt, mean): <5.0

**Q.** What does the source list for `CC(C)Oc1ccc2c(c1)nc(-c1ccc(OC3CCCN(C)CC3)cc1Cl)n2Cc1ccccc1` (single isomer, unassigned) [Example A11, 1-benzyl-2-(2-chloro-4-((1-methylazepan-4-yl)oxy)phenyl)-5-isopropoxy-1H-benzo[d]imidazole]?
**A.** POLQ PD Prolif Lumin BRCA2 −/− mean pIC50 (DLD-1 BRCA2−/− cells; DLD-1 BRCA2−/− cells, 12 days): 6.1; POLQ PD Prolif Lumin DLD1 mean pIC50 (DLD-1 cells; DLD-1 BRCA2 wt cells, 7 days): 5.8

**Q.** What does the source list for `C[C@@H]1C(=O)NCCN1CCOc1ccc(-c2nc3c(OC4(C)CC4)ncnc3n2Cc2ccccc2)c(Cl)c1` [Example H22, (R)-4-(2-(4-(9-benzyl-6-(1-methylcyclopropoxy)-9H-purin-8-yl)-3-chlorophenoxy)ethyl)-3-methylpiperazin-2-one]?
**A.** IC50 (DLD-1 BRCA2−/− cells; [1]): 126 nM; IC50 (DLD-1 cells; [2]): > 10000 nM
